According to ChEMBL document CHEMBL6153062, “Design, Synthesis, and Unprecedented Interactions of Covalent Dipeptide-Based Inhibitors of SARS-CoV-2 Main Protease and Its Variants Displaying Potent Antiviral Activity” (J Med Chem, 2025):

Assays:
[1] = Inhibition of SARS-CoV-2 MPro using Boc-Abu-Tle-Leu-Gln-AMC as substrate preincubated for 5 mins followed by substrate addition and measured after 60 mins; parameters: species or system Severe acute respiratory syndrome coronavirus 2
Calu-3 = test: Cytotoxicity against human Calu-3 cells assessed as reduction in cell viability at 10 uM measured after 24 hrs by celltiter-glo assay; type: functional, cell-based
[2] = Inhibition of recombinant SARS-CoV-1 Main protease using Ac-Abu-Tle-Leu-Gln-ACC as substrate incubated for 15 mins by fluorescence based microplate reader analysis; parameters: species or system Severe acute respiratory syndrome-related coronavirus
SARS-CoV-2 [3] = type: functional, organism-based; conditions: Severe acute respiratory syndrome coronavirus 2, B.1.513, Calu-3
[4] = Inhibition of MERS-CoV Main protease using Ac-Abu-Tle-Leu-Gln-ACC as substrate incubated for 15 mins by fluorescence based microplate reader analysis; parameters: species or system Middle East respiratory syndrome-related coronavirus
[5] = test system: Severe acute respiratory syndrome coronavirus 2; test: Inhibition of SARS-CoV-2 MPro using Boc-Abu-Tle-Leu-Gln-AMC as substrate assessed as Kinact/Ki ratio preincubated for 5 mins followed by substrate addition and measured after 60 mins; conditions: time 65.0 min
[6] = Irreversible inhibition of SARS-CoV-2 MPro using Boc-Abu-Tle-Leu-Gln-AMC as substrate preincubated for 5 mins followed by substrate addition and measured after 60 mins; parameters: species or system Severe acute respiratory syndrome coronavirus 2
[7] = Inhibition of wild type SARS-CoV-2 MPro; parameters: species or system Severe acute respiratory syndrome coronavirus 2
[8] = Reversible inhibition of SARS-CoV-2 MPro using Boc-Abu-Tle-Leu-Gln-AMC as substrate preincubated for 5 mins followed by substrate addition and measured after 60 mins; parameters: species or system Severe acute respiratory syndrome coronavirus 2
[9] = Inhibition of SARS-CoV-2 MPro; parameters: species or system Severe acute respiratory syndrome coronavirus 2
SARS-CoV-2 [10] = test: microbe, parasite or virus in culture; conditions: Severe acute respiratory syndrome coronavirus 2

## C=CC(=O)[C@H](Cc1ccccc1)NC(=O)[C@H](CC(C)C)NC(=O)COc1ccc(Cl)cc1
[1]
  IC50: 0.097 µM
Calu-3
  Activity: Not toxic
[2]
  IC50: 0.203 µM
SARS-CoV-2 [3]
  EC50: 0.181 µM
[4]
  IC50: 1.42 µM

## C=CC(=O)[C@H](Cc1ccccc1)NC(=O)[C@H](CC(C)C)NC(=O)C1CC1c1ccccc1 (stereo partly drawn)
[1]
  IC50: 0.138 µM
[5]
  Ratio: 14500 M⁻¹ s⁻¹

## CC(C)C(=O)OC[C@H]1O[C@@H](n2cc/c(=N\O)[nH]c2=O)[C@H](O)[C@@H]1O [MOLNUPIRAVIR]
SARS-CoV-2 [3]
  EC50: 0.00323 µM

## C=CC(=O)[C@H](Cc1ccccc1)NC(=O)[C@H](CC(C)C)NC(=O)c1csc(-c2ccccc2)n1
[1]
  IC50: 0.151 µM
[5]
  Ratio: 32500 M⁻¹ s⁻¹

## C=CC(=O)[C@H](Cc1ccccc1)NC(=O)[C@H](CC(C)C)NC(=O)c1cc(C)on1
[1]
  IC50: 0.449 µM
[5]
  Ratio: 21300 M⁻¹ s⁻¹

## C=CC(=O)[C@H](Cc1ccccc1)NC(=O)[C@H](CC(C)C)NC(=O)/C=C/c1ccc(Cl)cc1Cl
[1]
  IC50: 0.338 µM
[5]
  Ratio: 7000 M⁻¹ s⁻¹

## C=CC(=O)[C@H](Cc1cccc(Cl)c1)NC(=O)[C@H](CC(C)C)NC(=O)CSc1ccccc1
[6]
  IC50: 0.017 µM
Calu-3
  Activity: Not toxic
[7]
  IC50: 0.0117 µM

## C=CC(=O)[C@H](Cc1ccccc1)NC(=O)[C@H](CC(C)C)NC(=O)c1ccc(-c2ccccc2)s1
[1]
  IC50: 0.183 µM
[5]
  Ratio: 15500 M⁻¹ s⁻¹

## C=CC(=O)[C@H](Cc1ccccc1)NC(=O)[C@H](CC(C)C)NC(=O)COc1cccc(OC)c1
[1]
  IC50: 0.089 µM
Calu-3
  Activity: Not toxic
[2]
  IC50: 0.057 µM
SARS-CoV-2 [3]
  EC50: 0.557 µM
[4]
  IC50: 0.565 µM

## C=CC(=O)[C@H](Cc1ccccc1)NC(=O)[C@H](CC(C)C)NC(=O)CCc1ccc(OC(F)(F)F)cc1
[1]
  IC50: 0.184 µM
[5]
  Ratio: 14000 M⁻¹ s⁻¹

## C=CC(=O)[C@H](Cc1cccc(F)c1)NC(=O)[C@H](CC(C)C)NC(=O)COc1ccc(Cl)cc1Cl
Calu-3
  Activity: Not toxic
SARS-CoV-2 [3]
  EC50: 3.41 µM
[8]
  IC50: 0.044 µM

## C=CC(=O)[C@H](Cc1ccccc1)NC(=O)[C@H](CC(C)C)NC(=O)/C=C/c1ccccc1
[1]
  IC50: 0.131 µM
[2]
  IC50: 0.11 µM
[5]
  Ratio: 9630 M⁻¹ s⁻¹

## O=C(Sc1ncccn1)c1cc2ccccc2[nH]1
[9]
  IC50: 0.011 µM
SARS-CoV-2 [10]
  EC50: 0.11 µM

## C=CC(=O)[C@H](Cc1ccccc1)NC(=O)[C@H](CC(C)C)NC(=O)c1ccc(-c2ccccc2)o1
[1]
  IC50: 0.363 µM
[2]
  IC50: 0.022 µM
[4]
  IC50: 0.538 µM
[5]
  Ratio: 16400 M⁻¹ s⁻¹

## C=CC(=O)[C@H](Cc1ccccc1F)NC(=O)[C@H](CC(C)C)NC(=O)COc1ccc(Cl)cc1Cl
[1]
  IC50: 0.159 µM
[5]
  Ratio: 13300 M⁻¹ s⁻¹

## C=CC(=O)[C@H](Cc1ccccc1)NC(=O)[C@H](CC(C)C)NC(=O)c1cc2ccccc2s1
[1]
  IC50: 0.221 µM
[5]
  Ratio: 21700 M⁻¹ s⁻¹

## C=CC(=O)[C@H](Cc1ccccc1)NC(=O)[C@H](CC(C)C)NC(=O)c1sc(-c2ccccc2)nc1C
[1]
  IC50: 0.117 µM
[5]
  Ratio: 29000 M⁻¹ s⁻¹

## C=CC(=O)[C@H](Cc1ccccc1)NC(=O)[C@H](CC(C)C)NC(=O)COc1cccc(N(C)C)c1
[1]
  IC50: 0.131 µM
Calu-3
  Activity: Not toxic
[5]
  Ratio: 22600 M⁻¹ s⁻¹

## CC(C)C[C@H](NC(=O)c1cc2ccccc2o1)C(=O)N[C@@H](Cc1ccccc1)C(=O)C=CN(C)C
[1]
  IC50: > 10 µM

## C=CC(=O)[C@H](Cc1ccccc1)NC(=O)[C@H](CC(C)C)NC(=O)c1cc2ccccc2[nH]1
[1]
  IC50: 0.117 µM
Calu-3
  Activity: Not toxic
[2]
  IC50: 0.357 µM
SARS-CoV-2 [3]
  EC50: 0.00257 µM
[4]
  IC50: 0.0697 µM

## CC(C)C[C@H](NC(=O)CSc1ccccc1)C(=O)N[C@@H](Cc1ccccc1)C(=O)c1nc2ccccc2s1
[1]
  IC50: > 10 µM

## CC(C)C[C@H](NC(=O)c1cc2ccccc2s1)C(=O)N[C@@H](Cc1ccccc1)C(=O)C=CN(C)C
[1]
  IC50: 18.9 µM

## C=CC(=O)[C@H](Cc1ccccc1)NC(=O)[C@H](CC(C)C)NC(=O)COc1ccccc1
Calu-3
  Activity: Not toxic
[2]
  IC50: 0.027 µM
SARS-CoV-2 [3]
  EC50: 0.0124 µM
[8]
  IC50: 0.062 µM
[4]
  IC50: 0.138 µM

## C=CC(=O)[C@H](Cc1c[nH]c2ccccc12)NC(=O)[C@H](CC(C)C)NC(=O)COc1ccc(Cl)cc1Cl
[1]
  IC50: 0.316 µM
[2]
  IC50: 0.058 µM
[4]
  IC50: 1.08 µM
